Literature values as cited in US4665052A, “Renin inhibitors containing homophe^8 and a C-terminal amide cycle” (Merck & Co., Inc., priority 1984, dated 1987).

Experiments:
[1] = test system: aspartyl proteases such as pepsin, cathepsin D, and renin; conditions: selectivity
hog renin = conditions: after injection of hog renin into nephrectomized rats; Gross et al. 1971

## pepstatin
[1]
  inhibition of other acid proteases in addition to renin: inhibition of a variety of other acid proteases in addition to renin
Hog renin
  blood pressure in vivo: reduce blood pressure in vivo
